Tests used:
[1] = Permeability of the compound at 50 uM after 18 hrs by PAMPA; type: ADME; conditions: read-out: permeability
[2] = Growth inhibition of human LAL-CUN-2 cells after 48 hrs by MTS assay; type: functional
[3] = test system: OCI-Ly3; assay: Growth inhibition of human OCI-LY3 cells after 48 hrs by MTS assay; type: functional; conditions: OCI-Ly3, 48 h
[4] = test system: THLE-2; assay: Growth inhibition of human THLE2 cells after 72 hrs by MTS assay; type: cell-based; conditions: thle-2, 72 h
[5] = biological target: T1, CYP1A2 (Homo sapiens, UniProt P05177); assay: Inhibition of CYP1A2 in human liver microsomes at 10 uM after 10 mins in presence of NADPH by LC-MS/MS analysis relative to control; type: ADME
T1 sequence (P05177 whole entry): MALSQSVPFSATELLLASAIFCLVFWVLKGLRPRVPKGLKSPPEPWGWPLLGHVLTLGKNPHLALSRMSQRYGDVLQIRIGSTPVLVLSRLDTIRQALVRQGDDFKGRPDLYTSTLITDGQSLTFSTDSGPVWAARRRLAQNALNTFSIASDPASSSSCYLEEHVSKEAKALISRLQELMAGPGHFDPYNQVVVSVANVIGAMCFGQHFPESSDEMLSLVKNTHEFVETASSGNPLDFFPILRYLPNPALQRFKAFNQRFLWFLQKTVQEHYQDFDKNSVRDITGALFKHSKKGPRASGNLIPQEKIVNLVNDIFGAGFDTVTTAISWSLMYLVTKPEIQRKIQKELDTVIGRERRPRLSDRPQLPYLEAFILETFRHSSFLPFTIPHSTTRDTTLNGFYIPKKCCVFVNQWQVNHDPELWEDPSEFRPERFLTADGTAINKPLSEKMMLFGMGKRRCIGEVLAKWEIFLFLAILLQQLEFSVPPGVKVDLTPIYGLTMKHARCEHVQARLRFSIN

[6] = biological target: CYP2C19 (Homo sapiens, UniProt P33261); assay: Inhibition of CYP2C19 in human liver microsomes at 10 uM after 10 mins in presence of NADPH by LC-MS/MS analysis relative to control; type: ADME
[7] = biological target: CYP3A4 (Homo sapiens, UniProt P08684); assay: Inhibition of CYP3A4 in human liver microsomes at 10 uM after 10 mins in presence of NADPH by LC-MS/MS analysis relative to control; type: ADME
[8] = Metabolic stability in human liver microsomes assessed as parent compound remaining at 1 uM preincubated for 10 mins followed by NADP addition after 20 mins by LC-MS/MS analysis; type: ADME, microsome; conditions: liver microsomes, read-out: Stability
[9] = Half life in human liver microsomes at 1 uM preincubated for 10 mins followed by NADP addition after 20 mins by LC-MS/MS analysis; type: ADME, microsome; conditions: liver microsomes
[10] = Metabolic stability in mouse liver microsomes assessed as parent compound remaining at 1 uM preincubated for 10 mins followed by NADP addition after 20 mins by LC-MS/MS analysis; type: ADME, microsome; conditions: read-out: Stability
[11] = Half life in mouse liver microsomes at 1 uM preincubated for 10 mins followed by NADP addition after 20 mins by LC-MS/MS analysis; type: ADME, microsome
[12] = Half life in RARG2-/-gammac-/- Balb/c mouse at 5 mg/kg, iv administered as single dose by LC-MS/MS analysis; type: ADME, organism-based; conditions: in vivo
[13] = Clearance in RARG2-/-gammac-/- Balb/c mouse at 5 mg/kg, iv administered as single dose by LC-MS/MS analysis; type: ADME, organism-based; conditions: in vivo
[14] = Volume of distribution at steady state in RARG2-/-gammac-/- Balb/c mouse at 5 mg/kg, iv administered as single dose by LC-MS/MS analysis; type: ADME, organism-based; conditions: in vivo, read-out: Vdss

Chain of CYP3A4 (P08684 whole entry): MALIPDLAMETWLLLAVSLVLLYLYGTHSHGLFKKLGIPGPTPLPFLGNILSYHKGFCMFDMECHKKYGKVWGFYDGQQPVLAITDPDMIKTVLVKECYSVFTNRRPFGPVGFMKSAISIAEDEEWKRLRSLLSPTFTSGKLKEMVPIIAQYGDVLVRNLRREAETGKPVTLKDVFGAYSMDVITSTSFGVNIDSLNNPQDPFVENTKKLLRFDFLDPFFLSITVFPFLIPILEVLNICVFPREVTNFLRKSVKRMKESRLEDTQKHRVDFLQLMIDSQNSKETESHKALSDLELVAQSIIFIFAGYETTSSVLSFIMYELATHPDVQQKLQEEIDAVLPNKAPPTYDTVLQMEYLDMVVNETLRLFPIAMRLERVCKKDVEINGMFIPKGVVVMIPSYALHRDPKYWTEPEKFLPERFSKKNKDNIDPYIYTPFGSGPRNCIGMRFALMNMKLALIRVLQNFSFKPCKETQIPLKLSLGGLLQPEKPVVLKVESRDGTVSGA
Chain of CYP2C19 (P33261 whole entry): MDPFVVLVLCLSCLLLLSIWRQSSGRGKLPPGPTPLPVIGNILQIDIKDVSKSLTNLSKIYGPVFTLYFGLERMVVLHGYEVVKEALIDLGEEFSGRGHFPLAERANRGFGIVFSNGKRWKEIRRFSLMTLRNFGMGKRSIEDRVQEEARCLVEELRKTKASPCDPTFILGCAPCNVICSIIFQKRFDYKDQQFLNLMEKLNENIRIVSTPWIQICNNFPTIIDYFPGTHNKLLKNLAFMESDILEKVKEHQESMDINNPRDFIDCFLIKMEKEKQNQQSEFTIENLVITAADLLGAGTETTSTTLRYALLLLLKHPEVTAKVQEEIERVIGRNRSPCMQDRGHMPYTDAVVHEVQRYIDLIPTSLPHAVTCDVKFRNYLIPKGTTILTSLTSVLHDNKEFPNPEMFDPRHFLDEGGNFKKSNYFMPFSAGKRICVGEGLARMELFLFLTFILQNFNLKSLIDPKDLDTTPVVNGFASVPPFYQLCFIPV

## COc1cc2c(NC3CCN(C4CC4)CC3)cc(-c3ccc(C)o3)nc2cc1OCCCN1CCCC1
[1]
  Papp at 18 h, 50 µM: 4.04 ×10⁻⁶ cm/s
[2]
  GI50: 1380 nM
[3]
  GI50: 187 nM
[4]
  LC50: 455 nM
[5]
  inhibition at 10 min, 10 µM: 28.6%
[6]
  inhibition at 10 min, 10 µM: 4%
[7]
  inhibition at 10 min, 10 µM: 4.6%
[8]
  remaining at 20 min, 1 µM: 97%
[9]
  half-life at 1 µM: > 144 min
[10]
  remaining at 20 min, 1 µM: 15%
[11]
  half-life at 1 µM: 6 min
[12]
  half-life: 624 min
[13]
  clearance: 15 mL/min/kg
[14]
  Vd: 11.9 L/kg
